Nine compounds from EP0359439A1, “Substituted pyridazinones” (ORION-YHTYMÄ OY, priority 1988, dated 1990) can be followed below.

Molecules are shown by their SMILES. Several values for one entry are separate records, joined by “and”; a condition that tells them apart may be missing. Equal values may be shown once.

The target of this assay is Canine Cardiac Phosphodiesterase III. The assay is described as follows: Inhibition of Canine Cardiac Phosphodiesterase III enzyme. The assay is classed as biochemical. To be noted: concentration showing 50% inhibition of Canine Cardiac Phosphodiesterase III enzyme; read-out: IC₅₀. An excerpt: In Table 5 the concentration of the compounds showing 50% inhibition of Canine Cardiac Phosphodiesterase III enzyme is given.
In the case of `CC1(C)C(=O)Nc2cc3nc(-c4ccncc4)[nH]c3cc21` [BM 14.478, 5,7-Dihydro-7,7-dimethyl-2-(4-pyridinyl)-pyrrolo-(2,3-f)benzimidazol-6(1H)-one, reference compound], the IC50 came to 940 nM.
`O=C1CCC(c2ccc(N=Cc3ccc(O)cc3O)cc2)=NN1` [Compound A, 6-[4-(2,4-Dihydroxyphenyl)methyleneaminophenyl]-4,5-dihydropyridazin-3(2H)one]: the IC50 came out at 1700 nM.
Then `O=C1CCC(c2ccc(N=C(c3ccccc3)c3ccc(O)cc3O)cc2)=NN1` [Compound C], with 19 nM; and `CC(=Nc1ccc(C2=NNC(=O)CC2C)cc1)c1ccc(O)cc1O` (stereo not drawn) [Compound D, 6-[4-(1-(2,4-Dihydroxyphenyl)ethylidene)aminophenyl]-4,5-dihydro-5-methylpyridazin-3(2H)one], with 60 nM and 100 nM.
Then `CCC(=Nc1ccc(C2=NNC(=O)CC2)cc1)c1ccc(O)cc1O` [Compound E, 6-[4-(1-(2,4-Dihydroxyphenyl)propylidene)aminophenyl]-4,5-dihydropyridazin-3(2H)one], with 390 nM; and `O=C1CCC(c2ccc(N=Cc3c(O)ccc4ccccc34)cc2)=NN1` [Compound F, 6-[4-(2-hydroxynaphtyl)methyleneaminophenyl]-4,5-dihydropyridazin-3(2H)one], with greater than 10000 nM.
Turning to `CC(=Nc1ccc(-c2ccc(=O)[nH]n2)cc1)c1ccc(O)cc1O` [Compound H, 6-[4-(1-(2,4-Dihydroxyphenyl)ethylidene)aminophenyl]pyridazin-3(2H)one], the IC50 is 140 nM.
Consider `O=C1CCC(c2ccc(N=C(CCc3ccccc3)c3ccc(O)cc3O)cc2)=NN1` [Compound L, 6-[4-(1-(2,4-dihydroxyphenyl)-3-phenylpropylidene)aminophenyl]-4,5-dihydropyridazin-3(2H)one], for which the IC50 was determined as 2 nM.
For `COc1ccc(-c2nc3cc(C4=NNC(=O)CC4C)ccc3[nH]2)cc1` (stereo not drawn) [Pimobendan, 4,5-Dihydro-6-(2-(4-methoxyphenyl)-1H-benzimidazol-5-yl)-5-methyl-3(2H)-pyridazinone, reference compound], the IC50 was 2000 nM and 1500 nM.
